Data on two molecules can be found in patent publication US20250090498A1, “TREATMENT OF PRIMARY CTLA-4 CHECKPOINT RELATED IMMUNODEFICIENCIES” (ADIENNE PHARMA & BIOTECH SA, priority 2023, published 2025).

A short description of one data set: in vivo. As to conditions: C57BL/6, mouse, 18 mg/kg.
For a further data set, the target named is T1, AhR (Homo sapiens, UniProt P35869).
T1 sequence (P35869 11-848): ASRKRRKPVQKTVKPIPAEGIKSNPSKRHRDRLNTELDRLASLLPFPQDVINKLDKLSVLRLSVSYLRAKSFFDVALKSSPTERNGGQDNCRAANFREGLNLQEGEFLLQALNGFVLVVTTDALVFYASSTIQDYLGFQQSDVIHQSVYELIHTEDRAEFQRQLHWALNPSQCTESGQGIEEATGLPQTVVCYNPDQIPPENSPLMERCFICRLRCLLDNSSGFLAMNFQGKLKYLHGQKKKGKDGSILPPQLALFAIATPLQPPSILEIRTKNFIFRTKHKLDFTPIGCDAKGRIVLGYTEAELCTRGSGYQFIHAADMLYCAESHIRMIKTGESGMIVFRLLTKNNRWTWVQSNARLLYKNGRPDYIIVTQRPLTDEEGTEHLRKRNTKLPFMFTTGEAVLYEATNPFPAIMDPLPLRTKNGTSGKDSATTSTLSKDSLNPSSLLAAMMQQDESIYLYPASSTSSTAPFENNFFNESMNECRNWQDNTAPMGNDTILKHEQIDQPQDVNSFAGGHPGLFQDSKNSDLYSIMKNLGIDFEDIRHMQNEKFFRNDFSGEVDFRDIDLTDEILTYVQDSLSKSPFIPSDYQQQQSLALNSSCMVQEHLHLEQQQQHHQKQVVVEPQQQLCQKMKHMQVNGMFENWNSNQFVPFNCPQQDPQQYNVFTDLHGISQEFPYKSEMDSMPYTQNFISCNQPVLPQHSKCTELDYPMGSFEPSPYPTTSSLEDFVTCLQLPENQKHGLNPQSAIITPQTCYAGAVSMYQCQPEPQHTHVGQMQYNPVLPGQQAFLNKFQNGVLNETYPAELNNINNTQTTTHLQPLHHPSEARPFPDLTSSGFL
Put plainly: AhR target gene expression by RT-PCR in A549, Calu-3, CaCo-2 and HepG32 cell lines. On the set-up: endogenous in cells; host or cells: HepG2, A549, Calu-3, CaCo-2. The following applies: for AhR activity at the higher 1000 M concentration: increased in CaCo-2 and HepG32 but not on Calu-3 cells. The data set is classed as cell-based. The procedure:
ITE and FICZ are reference AhR agonists. Assays were performed at 4 hours post-incubation.
To further characterize the AhR agonistic potential of 1ME3CA, the ability of 3-IAld and 1ME3CA to activate target genes downstream AhR (Cyp1a1, Cyp2a1 and AhRR) in the A549 cell line derived from adenocarcinomic human alveolar basal epithelial cells, in the Calu-3 cell line derived from adenocarcinomic human bronchial epithelial cells, in the CaCo-2 cell line derived from human colon carcinoma and in the […] human liver cancer cell line was comparatively assessed. Cells were exposed to 1, 10, 100 and 1000 µM of either molecules or DMSO for 4 hours or overnight (on) at 37° C. before being assessed for the expression of the above-mentioned genes by RT-PCR.

Data set [1] is described as follows: toxicology, up to 3 weeks, PAS tissue pathology in C57BL/6 mice. The data set is classed as in vivo. The following applies: 0.36-0.18-0.09 mg/mouse intragastrically, enteric microparticles. The procedure: For assess toxicology, C57BL/6 mice received intragastrically escalating doses of 0.36-0.18-0.09 mg/mouse of 3-IAld or 1ME3CA formulated in enteric microparticles for up to 3 weeks as shown in Table 3 below. At the end of treatment, mice were sacrificed, and tissue pathology blindly examined on different organs after PAS staining of different section from each organ. Sections of organs from 4 mice in each group were separately evaluated.

Data set [2] is described as follows: single-dose pharmacokinetic study in healthy C57BL/6 mice, tissues and serum by mass spectrometry.
Method: (§1) A single-dose pharmacokinetic (PK) study was performed on healthy C57BL/6 mice to compare 1ME3CA and 3-IAld at 0.36 mg/topo dose. Untreated naïve mice were used as the control. […] Blood, obtained by cardiac puncture and collected into EDTA-containing tubes, and organs (brain, lung, intestine, liver and kidney) were assessed. All samples were stored at −80° C. until use. To evaluate 1ME3CA and 3-IAld for functional activity, the expression of AhR-downstream genes were concomitantly evaluated in these mice.

Method for in vivo: as §1

Regarding `Cn1cc(C(=O)O)c2ccccc21` [1-methylindole-3-carboxylic acid, 1-Methyl-1H-indole-3-carboxylic acid], the Tmax in “in vivo” (in vivo) was 0.5 h. Further, at AhR, the “AhR agonistic activity versus 3-IAld (overall)” value was “comparable, if not superior”; the “expression of the IDO1 and IDO2 genes” value is “No activity was observed”; the “AhR activity at the higher 1000 M concentration” value is reported as “inconsistent results”. The “expression of AhR-dependent Cyp1a1, Cyp2a1 and AhRR genes” value on AhR (cell lines tested, 4 hours or overnight) is reported as “promoted the expression”. For the same molecule, the “extent of gene expression versus reference AhR ligands ITE or FICZ and 3-IAld” value on AhR (similar concentration, i.e. 100 μM) is reported as “comparable, or even superior”. The “tissue pathology in different organs (PAS)” value in data set [1] is on record as “absence of visible tissue pathology”. For the same molecule, the “detectability at 6 hours in serum, lung, and kidneys” value in data set [2] (after enteric 1ME3CA 18 mg/Kg) is reported as “undetectable”. Further, in data set [2] (after enteric 1ME3CA 18 mg/Kg, all organs and serum), the Cmax values entry is reported as “very similar”. Besides, in data set [2] (after enteric 1ME3CA 18 mg/Kg, versus control), the “levels 24 hours after the administration in intestine, liver and brain” value is “still higher than control”. Also, the “systemic levels versus those after oral 3-IAld” value in data set [2] (after oral 1ME3CA) is “more sustained and, as expected, significantly higher”. In data set [2] (after oral 3-IAld 18 mg/Kg), the “clearance of metabolites from the organs” value is “rapid clearance”; the “concentrations in the intestine, serum, and kidney” value was “basal”. The “level 24 hours after administration of 3-IAld” value in data set [2] (mice administered with 3-IAld) was “had disappeared”.

Take `O=Cc1c[nH]c2ccccc12` [3-IAld, 1H-indole-3-carbaldehyde]: the half-life in the data set “in vivo” (po) is 3 to 5 h. Further, at AhR, the “expression of the IDO1 and IDO2 genes” value was “No activity was observed”; the “AhR activity at the higher 1000 M concentration” value is reported as “inconsistent results”. For the same molecule, in data set [1], the “tissue pathology in different organs (PAS)” value was “absence of visible tissue pathology”. Further, the “concentrations in all organs” value in data set [2] (after enteric 1ME3CA 18 mg/Kg) was “basal”. Further, the “disappearance of 3-IAld from tissues” value in data set [2] (single oral 18 mg/Kg 3-IAld, enteric microparticles, after 2 hours, most tissues) was “rapidly disappeared”.
